# Assay results from patent US20100130514A1, “FUSED HETEROCYCLIC DERIVATIVE, PHARMACEUTICAL COMPOSITION COMPRISING THE DERIVATIVE, AND USE OF THE COMPOSITION FOR MEDICAL PURPOSES” (Kissei Pharmaceutical Co., Ltd., priority 2007, published 2010).
# Key:
# [1] = Assay for oral absorbability: plasma drug concentration after oral administration; assay type: in vivo; conditions: overnight fasted male SD rats, 3 mg/kg
# Procedure: Assay for Oral Absorbability
# 1) Preparation of the Samples for Measurement of the Drug Concentration After Oral Administration
# As experimental animal, overnight fasted SD rats (Charles River, male, 7 weeks of age, 170-210 g) were used. Three mg of a test compound was dissolved by adding 0.2 mL of N,N-dimethylacetoamide, 9.794 mL of 0.5% aqueous methylcellulose solution and 0.006 mL of 2N NaOH, and then 0.3 mg/mL solution was prepared. The body weights of rats were measured, and the solution of the test compound was administered orally at the dose of 10 mL/kg (3 mg/kg). The oral administration was performed with gastric tube for rat and 2.5 mL syringe. The sampling times for collection of blood were 15, 30, 60, 120, 240 and 360 minutes after the oral administration. The blood was centrifuged, and the plasma was used as the sample for measurement of the drug concentration in blood.
# 2) Measurement of the Drug Concentration
# To 0.025 mL of the plasma obtained in 1) described above, 0.1 mL of an adequate internal standard material was added according to the usual method, and then deproteinization was performed by adding 0.875 mL of acetonitrile. After centrifugation, 0.005 mL of the supernatant was injected into LC-MS/MS. The drug concentration in plasma was measured by LC-MS/MS method under the conditions as follows. […]
# human GnRHR1 = target: T1, human GnRHR1 (Homo sapiens, UniProt P30968); test: Inhibitory effect for the change of calcium levels in GnRH-stimulated cells (hGnRHR1#1 HEK293 cells); assay type: cell-based; conditions: HEK293 cells stably expressing human GnRHR1; 10 nM GnRH added; FLIPR Calcium Assay Kit; read-out: IC50 (drug concentration at which 50% GnRH-stimulated intracellular calcium flux was inhibited)
# T1 construct: expressed in transfected cells
# T1 sequence (P30968 1-328): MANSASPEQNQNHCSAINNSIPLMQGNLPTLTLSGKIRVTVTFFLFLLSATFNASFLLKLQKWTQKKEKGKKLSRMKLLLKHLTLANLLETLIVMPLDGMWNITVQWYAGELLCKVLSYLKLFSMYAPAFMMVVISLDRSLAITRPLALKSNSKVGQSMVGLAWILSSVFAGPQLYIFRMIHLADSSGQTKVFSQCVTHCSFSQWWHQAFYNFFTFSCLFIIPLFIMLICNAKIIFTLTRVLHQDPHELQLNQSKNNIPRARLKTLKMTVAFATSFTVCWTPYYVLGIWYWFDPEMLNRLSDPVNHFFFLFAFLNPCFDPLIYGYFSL
# Description: 1) Cloning and Construction of the Vector Expressing Human GnRH Receptor1 (GnRHR1)
# Using cDNA derived from human pituitary (BECTON DICKINSON) as a template, the DNA fragment coding 45 to 1115 by of human GnRHR1 (Accession No. L03380), which was reported by Kakar et al., was amplified by PCR method and inserted into the multi-cloning site of pcDNA3.1(+) (Invitrogen). The DNA sequence inserted was perfectly matched to the previously reported sequence.
# 2) Establishment of Cell Line Stably Expressing Human GnRH Receptor1 HEK293 Cells
# The expression vector of human GnRHR1 gene, was digested by XhoI into a linear DNA. The linear DNA was transfected into HEK293 cells by means of lipofection (Lipofectamine2000: Invitrogen). Neomycin resistant cell lines were selected by culture in the medium containing G418 (Invitrogen) at 1 mg/mL, and then the change of calcium levels in GnRH-stimulated cells was measured by the method described below.
# 3) Assay of Inhibitory Effect for the Change of Calcium Levels in GnRH-Stimulated Cells
# Antagonizing effect of compounds for human GnRHR1 was evaluated by depression of calcium levels in GnRH-stimulated cells. hGnRHR1#1 cells were seeded into a 96-well culture plate at a density of 1.5×10^5 cells/well and cultured for a day. […] Then, intracellular calcium levels were determined under the following condition by using FLEX STATION (Molecular Devices). […]
smiles,measurement,setting,value
COC(=O)N(C)CCOc1ccc(F)c(F)c1COc1ccc(F)c(-n2c(=O)[nH]c3csc(C(=O)O)c3c2=O)c1 [Example 8],C360 (plasma drug concentration at 360 minutes after administration),[1]; 360 minutes,490 ng/mL
same,Cmax,"[1]; rat, read-out: Cmax (maximum plasma drug concentration)",2380 ng/mL
same,IC50,human GnRHR1,91 nM
